From publication PMC6753139, “TRIM66 reads unmodified H3R2K4 and H3K56ac to respond to DNA damage in embryonic stem cells” (Nature Communications, 2019)
Substitutions are numbered along the chain they refer to.

Experiments:
TRIM66-WT965-1160 = target: T1, TRIM66-WT965-1160 (Homo sapiens, UniProt O15016); assay: ITC, PHD-Bromodomain wild type; assay type: binding; details: ITC, MicroCal PEAQ-ITC, 25 °C, 20 mM Tris, 100 mM NaCl, pH 7.5; single measurement, error from curve fit; Weak binding = ITC curves cannot be fitted reliably; N.D. = no detectable binding
T1 construct: ITC titration: titrating TRIM66-WT965-1160 with various histone H3 peptides; GST (N, cleaved yes); made in house; host or cells: Escherichia coli BL21 (DE3)
T1 sequence (O15016 1100-1295): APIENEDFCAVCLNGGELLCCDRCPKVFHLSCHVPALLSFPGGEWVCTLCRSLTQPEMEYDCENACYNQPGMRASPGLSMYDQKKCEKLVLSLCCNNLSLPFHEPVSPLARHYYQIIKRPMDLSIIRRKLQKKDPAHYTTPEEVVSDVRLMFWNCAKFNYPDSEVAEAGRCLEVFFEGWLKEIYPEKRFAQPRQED
From the text: We next performed the glutathione S-transferase (GST) pulldown assays of the TRIM66-WT965-1160 against the calf thymus histones to verify the histone-binding ability of TRIM66 PHD-Bromodomain. […] The PHD of TRIM66 shared a low conservation with those of ING4, PHF2, and BPTF, and lacked the conserved aromatic residues, which were necessary for binding H3K4me2/3[40]–[42] (Supplementary Fig. 2b). Nevertheless, TRIM66 was highly conserved in sequence and structure with the PHDs of TRIM24 and TRIM33 (Fig. 1c and Supplementary Fig. 2b), which were reported to bind H3K4me0[5],[6]; thus, we speculated that the PHD of TRIM66 could bind H3K4me0. To verify this hypothesis, we performed isothermal titration calorimetry (ITC)-based binding assays. […] Based on previous researches reporting the acetyl-lysine binding partners of Bromodomain[3]–[12], we chose a series of related peptides derived from H3 and H4, to test their interactions with TRIM66-WT965-1160 by ITC experiments. […] We further found the acetylated state of K56 was necessary for this binding (Supplementary Fig. 3b).
We next titrated the TRIM66-WT965-1160 with a series of R2-methylated H3 peptides through ITC assays. […] This finding was consistent with the structural observation that each NηH atom of the R2 formed a hydrogen bond with residues in protein (Fig. 2d).
The DNA fragments of human TRIM66_968-1160, TRIM24_824-1006, and TRIM33_882-1087 were amplified from a human bone marrow cDNA library using a PCR-based cloning strategy. The fragments of TRIM66-WT968-1160 were inserted into a pGEX-4T-1 plasmid (GE Healthcare). The fragments of TRIM24_824-1006 and TRIM33_882-1087 were ligated into a pET-SUMO-28a (+) plasmid (Novagen). The DNA fragments of TRIM66-MUT968-1160 and TRIM66-WT965-1160 with codon optimization were synthesized by General Biosystems (sequence was shown in Supplementary Methods) and inserted into a pGEXT-4T-1 plasmid (GE Healthcare). Mutants of TRIM66 PHD-Bromo were generated through PCR using the Mutant Best kit (Takara). The mutation of point mutant based on the codon-optimized DNA sequence of TRIM66-WT965-1160. All constructs were expressed in Escherichia coli BL21 (DE3). The construct of ASF1a1-156 inserted into a pRSFDuet plasmid (courtesy of Ruiming Xu Lab, Institute of Biophysics, Chinese Academy of Sciences) was expressed in E. coli BL21 (DE3) RIL. The construct of full-length H4 inserted into a pET3a plasmid was expressed in E. coli BL21 (DE3). The expression of full-length histone H3K56ac was performed in BL21 (DE3) cells transformed with pBK-AxcKRS3 and pET22b encoding H3 with amber codons at the K56 site[12]. The DNA fragment of full-length TRIM66 was synthesized by General Biosystems and ligated into fugw vector (Addgene). See the information of protein sequence in Supplementary Table 1.
(§1) The calorimetric experiments were performed at 25 °C using a MicroCal PEAQ-ITC. The proteins were dialyzed using a buffer containing 20 mM Tris and 100 mM NaCl at pH 7.5. Lyophilized peptides were dissolved in the same buffer and adjusted to pH 7.5 prior to use. Peptide concentrations were estimated from the quantitative NMR experiments[73],[74]. ITC measurements were performed via injection of 0.7–4 mM peptide into a cell containing 0.12 mM TRIM24-PHD-Bromo, 0.05 mM TRIM33 PHD-Bromo, and 0.05 or 0.11–0.15 mM TRIM66-PHD-Bromo (or its mutants). The ITC data were subsequently analyzed using the MicroCal PEAQ-ITC analysis software.

TRIM66 965-1160 D986A = target: T2, TRIM66 965-1160 D986A (Homo sapiens, UniProt O15016, D1121A); assay: ITC, point mutant; details: 25 °C, pH 7.5, Weak binding = ITC curves cannot be fitted reliably
T2 construct: GST (N, cleaved yes); made in house; host or cells: Escherichia coli BL21 (DE3)
T2 sequence (O15016 1100-1295 D1121A): T1 sequence (O15016 1100-1295) with D22A
Description: (§2) We further investigated the role of the TRIM66 PHD-Bromodomain in safeguarding the genome. We first introduced a series of single amino acid mutations to the PHD domain at interaction interface and then performed corresponding ITC assays.
as §1

TRIM66 965-1160 D971A = target: T3, TRIM66 965-1160 D971A (Homo sapiens, UniProt O15016, D1106A); assay: ITC, point mutant; details: 25 °C, pH 7.5, Weak binding = ITC curves cannot be fitted reliably
T3 construct: GST (N, cleaved yes); made in house; host or cells: Escherichia coli BL21 (DE3)
T3 sequence (O15016 1100-1295 D1106A): T1 sequence (O15016 1100-1295) with D7A
Description: as §2, §1

Kd (TRIM66-WT965-1160): 15.7 ± 0.64 µM
KD (TRIM66 965-1160 D986A): Weak binding
KD (TRIM66 965-1160 D971A): Weak binding
Structure (SMILES): C[C@H](N)C(=O)N[C@@H](CCCNC(=N)N)C(=O)N[C@H](C(=O)N[C@@H](CCCCN)C(=O)N[C@@H](CCC(N)=O)C(=O)N[C@H](C(=O)N[C@@H](C)C(=O)N[C@@H](CCCNC(=N)N)C(=O)N[C@@H](CCCCN)C(=O)N[C@@H](CO)C(=O)N[C@H](C(=O)NCC(=O)O)[C@@H](C)O)[C@@H](C)O)[C@@H](C)O [H3_1-12]
